Tests used:
[1] = test system: mycobacterial α-(1,6)-mannosyltransferases; experiment: In vitro PPM-dependent α-; type: biochemical, Mycobacterium smegmatis; conditions: inhibitor 1.0 mM; acceptor 0.2 mM; several independent experiments
α-(1,6)-ManTs = experiment: Mannosyl acceptor; type: biochemical, Mycobacterium smegmatis; conditions: up to 4 mM

Structure (SMILES)	inhibition of α-(1,6)-mannosyltransferase activity [1]	mannosyl acceptor activity (α-(1,6)-ManTs)
C[C@H]1O[C@H](c2cn(C[C@H]3O[C@@H](c4cn(C[C@H]5O[C@@H](c6cn(C[C@H]7O[C@@H](c8cn(C[C@H]9O[C@H](c%10cn(C[C@H]%11O[C@H](CCO)[C@@H](O)[C@@H](O)[C@@H]%11O)nn%10)[C@@H](O)[C@@H](O)[C@@H]9O)nn8)[C@@H](O)[C@@H](O)[C@@H]7O)nn6)[C@@H](O)[C@@H](O)[C@@H]5O)nn4)[C@@H](O)[C@@H](O)[C@@H]3O)nn2)[C@@H](O)[C@@H](O)[C@@H]1O [TOM-6]	ca. 95%	–
C[C@H]1O[C@H](c2cn(C[C@H]3O[C@@H](c4cn(C[C@H]5O[C@@H](c6cn(C[C@H]7O[C@@H](c8cn(C[C@H]9O[C@@H](c%10cn(C[C@H]%11O[C@@H](c%12cn(C[C@H]%13O[C@H](c%14cn(C[C@H]%15O[C@H](CCO)[C@@H](O)[C@@H](O)[C@@H]%15O)nn%14)[C@@H](O)[C@@H](O)[C@@H]%13O)nn%12)[C@@H](O)[C@@H](O)[C@@H]%11O)nn%10)[C@@H](O)[C@@H](O)[C@@H]9O)nn8)[C@@H](O)[C@@H](O)[C@@H]7O)nn6)[C@@H](O)[C@@H](O)[C@@H]5O)nn4)[C@@H](O)[C@@H](O)[C@@H]3O)nn2)[C@@H](O)[C@@H](O)[C@@H]1O [TOM-8]	ca. 95%	–
OCC[C@H]1O[C@H](Cn2cc([C@H]3O[C@H](CO)[C@@H](O)[C@H](O)[C@@H]3O)nn2)[C@@H](O)[C@H](O)[C@@H]1O [compound 31, 3,7-Anhydro-2,8-dideoxy-8-[4-(α-D-mannopyranosyl)-1H-1,2,3-triazol-1-yl]-D-glycero-D-talo-octitol]	–	poor mannosyl acceptor
